From patent US9175058B2, “Soluble immune response suppressor polypeptides and treatment of multiple sclerosis and other autoimmune diseases” (THE BOARD OF REGENTS OF THE UNIVERSITY OF TEXAS SYSTEM, priority 2004, dated 2015)
No end group written: not given here.

Tests used:
Assay type in all cases: in vivo, mouse
[1] = test system: C57/BL6 mice; assay: Induction of acute EAE by active immunization with MOG peptide 35-55; set-up: dose or concentration left out as unconfirmed; conditions: day 21, s.c. immunization with peptide in IFA, pertussis toxin, FIG. 1
[2] = test system: acute EAE in B6 mice; assay: Ingested (gavaged) SIRS peptide 1-21 in acute EAE induced by MOG peptide 35-55
[3] = test system: SOCS-1; assay: Quantitative PCR of SOCS-1 transcripts in spleen and spinal cord of SIRS peptide-fed EAE mice; conditions: for Splenic SOCS-1 transcript level normalized to b-actin: spleen, day 23-26 post active immunization
[4] = test system: SOCS-3; assay: Quantitative PCR of SOCS-3 transcripts in spleen and spinal cord of SIRS peptide-fed EAE mice; conditions: for SOCS-3 transcript level in CNS target tissue normalized to b-actin: spinal cord, day 23-26 post active immunization
Source text: (§1) Quantitative PCR can be performed for nominal EAE cytokine or transcript of interest. In particular, the mean measured transcript levels for IL-2/IFN-γ (Th1-like), IL-4/IL-10 (Th2-like) and other nominal biologic response modifiers of interest (e.g. TGF-β, IL-1, IL-6, IL-12, TNF-α) will be normalized to the b-actin control and expressed as % b-actin molecules.
(§2) Inflamed spinal cords from soluble immune response suppressor peptide-fed B6 mice (active treatment group) or from mock fed donor mice (control) were utilized for the experiments below. Intact spinal cord can be ejected by injecting saline into the distal end of the spinal canal and stored in RNALater (Ambion). The spinal cord is disrupted and the resulting cell suspension is filtered through a Falcon Cell Strainer 2350 (Becton Dickinson, San Jose, Calif.). Total RNA was processed on day 23-26 post active immunization, and relative numbers of transcripts for IFN-γ, IL-4, IL-10, SOCS-1, SOCS-2, and SOCS-3 were determined by quantitative PCR. The measured mean transcript levels were normalized to b-actin control (normalization mean=COI mean/b-actin×100) and expressed as % b-actin molecules.

[5] = test system: IL-10; assay: Quantitative PCR of IL-10 transcripts in spleen and spinal cord of SIRS peptide-fed EAE mice
Source text: as §1, §2

[6] = test system: acute EAE in B6 mice; assay: Parenteral (injected) SIRS peptide 1-21 in acute EAE induced by MOG peptide 35-55; conditions: day −7 through day 14 post immunization, n=8/group; for inhibition of EAE compared to placebo: FIG. 2
[7] = test system: SOCS-3; assay: Quantitative PCR of SOCS-3 transcripts in spleen and spinal cord of SIRS peptide-fed EAE mice; conditions: for Splenic SOCS-3 transcript level normalized to b-actin: spleen, day 23-26 post active immunization
[8] = test system: EAE in B6 recipients; assay: Adoptive transfer of MOG-restimulated splenocytes from SIRS peptide-injected donors to B6 recipients; conditions: recipients of 10×10^6 MOG-activated splenocytes i.p. from donors injected with 10 mg day −7 through day +14, FIG. 3
Protocol: B6 mice effector donors were actively immunized with myelin oligodendrocyte glycoprotein peptide 35-55 described above (day 0) and injected (day −7 through day +14 post-immunization) with 0.1 ml of control saline (n=8) or 10 mg of soluble immune response suppressor peptide 1-21 (n=8). On day 14 post inoculation, splenocytes from both saline-injected (mock control) and soluble immune response suppressor peptide-injected (active treatment) immunized donor mice were re-stimulated in vitro with […] myelin oligodendrocyte glycoprotein peptide 35-55 at 20×10^6 splenocytes for >1 hour and then diluted to 2-4 million cells/ml and cultured for 48-72 hours in RPMi with 10% FCS and 1% Pen/Strep. Myelin oligodendrocyte glycoprotein-restimulated cells were washed, counted and passively transferred (10×10^6) i.p. into 8-10 week old female B6 recipients.
The control group reached a maximum disease score of 2.1.

[9] = test system: IL-4; assay: Quantitative PCR of IL-4 transcripts in spleen and spinal cord of SIRS peptide-fed EAE mice; conditions: for IL-4 transcript level in CNS target tissue normalized to b-actin: spinal cord, day 23-26 post active immunization
Source text: as §1, §2

[10] = test system: diabetes mellitus in NOD mice; assay: Ingested SIRS peptide 1-21 in spontaneous diabetes of NOD mice; conditions: NOD female mice fed 100 μg daily from age ten weeks, FIG. 6 and FIG. 7
Protocol: NOD female mice (NOD MrkTacfBR) were obtained from Taconic Farms at eight weeks of age and feeding with mock (n=12) or 100 μg SIRS peptide 1-21 (n=6) in 0.1 ml DPBS daily was initiated at ten weeks. One hundred micrograms was used because this was an effective dose for inhibiting EAE (experimental autoimmune encephalomyelitis) in mice. The mice were maintained and fed under SPF conditions in microisolators, and handled under negative pressure sterile hoods. Surveillance mice were maintained with experimental mice and examined regularly for routine murine pathogens.
Mice were followed after initiation of feeding by weekly blood glucose determination (Life Scan One Touch II, Johnson & Johnson) beginning at week 18 thru 22. Animals were considered diabetic if two consecutive blood glucose determinations were above >11.1 mmol/l or >[…]. […]
Mock or SIRS peptide 1-21 was administered using a 2.5 cm syringe fitted with a 22-24 gauge ball point needle directly to the stomach and proximal small intestine (Thomas Scientific, Swedesboro, N.J.) daily to NOD mice beginning at age ten weeks. The peptide was directly delivered to the distal esophagus, stomach and proximal small intestine (as determined experimentally by injecting Evans blue during routine feeding and subsequent sacrifice). […]

[11] = test system: IFN-γ; assay: Quantitative PCR of IFN-γ transcripts in spleen and spinal cord of SIRS peptide-fed EAE mice
Source text: as §1, §2

[12] = test system: SOCS-1; assay: Quantitative PCR of SOCS-1 transcripts in spleen and spinal cord of SIRS peptide-fed EAE mice; conditions: for SOCS-1 transcript level in CNS target tissue normalized to b-actin: spinal cord, day 23-26 post active immunization
Source text: as §1, §2

[13] = test system: SOCS-2; assay: Quantitative PCR of SOCS-2 transcripts in spleen and spinal cord of SIRS peptide-fed EAE mice
Source text: as §1, §2

[14] = splenic samples from peptide-fed mice
[15] = CNS target organ (spinal cord) of peptide-fed mice
[16] = splenic samples, data not shown

MEVGWYRSPFSRVVHLYRNGK [Synthetic peptide 35-55 from myelin oligodendrocyte glycoprotein, used to induce EAE]
mean clinical score (scale 0-6) [1]: 3.44

MTEENQQSSQPKTTINNAGDS
delay in the onset of disease compared to placebo ([2]; 0.1 mg gavaged, FIG. 4): prolonged delay in the onset of disease
inhibition of EAE disease severity compared to placebo ([2]; 0.1 mg gavaged, day −7 through day 14, n=4/group, FIG. 4): significant inhibition of disease severity
inhibition of EAE disease severity compared to placebo ([2]; 0.1 mg gavaged, day −7 through day 14, n=4/group, FIG. 4, listed as soluble immune response suppressor peptide): significant inhibition
inhibition of EAE compared to placebo ([2]; 0.1 mg gavaged, repeat experiment, n=4/group, FIG. 5): no significant inhibition
inhibition of EAE compared to placebo ([2]; 1 mg gavaged, day −7 through day 14, n=4/group, FIG. 4): significant inhibition
delay in the onset of disease compared to placebo ([2]; 1 mg gavaged, repeat experiment, FIG. 5): prolonged delay in the onset of disease
inhibition of disease severity compared to placebo ([2]; 1 mg gavaged, repeat experiment, FIG. 5, p<0.038 Mann-Whitney): significant inhibition of disease severity
delay in the onset of disease compared to placebo ([2]; 10 mg gavaged, FIG. 4): prolonged delay in the onset of disease
inhibition of disease severity compared to placebo ([2]; 10 mg gavaged, day −7 through day 14, n=4/group, FIG. 4): significant inhibition of disease severity
delay in the onset of disease compared to placebo ([2]; 100 mg gavaged, FIG. 4): prolonged delay in the onset of disease
inhibition of disease severity compared to placebo ([2]; 100 mg gavaged, day −7 through day 14, n=4/group, FIG. 4): significant inhibition of disease severity
delay in the onset of disease compared to placebo ([2]; 100 mg gavaged, repeat experiment, FIG. 5): prolonged delay in the onset of disease
inhibition of disease severity compared to placebo ([2]; 100 mg gavaged, repeat experiment, FIG. 5, p<0.001): significant inhibition of disease severity
Splenic SOCS-1 transcript level normalized to b-actin ([3]; fed 0.1 mg): 0.28 % b-actin molecules
Splenic SOCS-1 transcript level normalized to b-actin ([3]; fed 1 mg): 0.30 % b-actin molecules
Splenic SOCS-1 transcript level normalized to b-actin ([3]; fed 10 mg): 0.23 % b-actin molecules
Splenic SOCS-1 transcript level normalized to b-actin ([3]; fed 100 mg): 0.23 % b-actin molecules
decrease in SOCS-1 compared to control [3, 14]: up to 30%
decrease in SOCS-3 [4, 15]: 45%
SOCS-3 transcript level in CNS target tissue normalized to b-actin ([4]; fed 0.1 mg): 0.45 % b-actin molecules
SOCS-3 transcript level in CNS target tissue normalized to b-actin ([4]; fed 1 mg): 0.54 % b-actin molecules
SOCS-3 transcript level in CNS target tissue normalized to b-actin ([4]; fed 10 mg): 0.28 % b-actin molecules
SOCS-3 transcript level in CNS target tissue normalized to b-actin ([4]; fed 100 mg): 0.22 % b-actin molecules
difference in IL-10 compared to control ([5]; cord samples): no significant differences
difference in IL-10 compared to control [5, 16]: no significant difference
inhibition of EAE compared to placebo ([6]; 0.1 mg injected): no significant inhibition
inhibition of EAE compared to placebo ([6]; 1 mg injected): no significant inhibition
inhibition of disease severity compared to placebo ([6]; 10 mg injected (s.c.), FIG. 2, ρ<0.001): significant inhibition of disease severity
Splenic SOCS-3 transcript level normalized to b-actin ([7]; fed 0.1 mg): 0.38 % b-actin molecules
Splenic SOCS-3 transcript level normalized to b-actin ([7]; fed 1 mg): 0.28 % b-actin molecules
Splenic SOCS-3 transcript level normalized to b-actin ([7]; fed 10 mg): 0.21 % b-actin molecules
Splenic SOCS-3 transcript level normalized to b-actin ([7]; fed 100 mg): 0.18 % b-actin molecules
decrease in SOCS-3 compared to control [7, 14]: 60%
clinical disease in recipients after passive transfer [8]: did not have any prolonged clinical disease
decrease in IL-4 expression [9, 15]: up to 80%
IL-4 transcript level in CNS target tissue normalized to b-actin ([9]; fed 0.1 mg): 0.04 % b-actin molecules
IL-4 transcript level in CNS target tissue normalized to b-actin ([9]; fed 1 mg): 0.15 % b-actin molecules
IL-4 transcript level in CNS target tissue normalized to b-actin ([9]; fed 10 mg): 0.05 % b-actin molecules
IL-4 transcript level in CNS target tissue normalized to b-actin ([9]; fed 100 mg): 0.02 % b-actin molecules
difference in IL-4 compared to control [9, 16]: no significant difference
frequency of mice becoming diabetic compared to mock treated mice [10]: decreased frequency of mice becoming diabetic
onset of T1DM compared to mock treated mice [10]: significantly delayed onset of T1DM
difference in IFN-γ compared to control ([11]; cord samples): no significant differences
difference in IFN-γ compared to control [11, 16]: no significant difference
increase in SOCS-1 expression [12, 15]: 75-175 % of control
SOCS-1 transcript level in CNS target tissue normalized to b-actin ([12]; fed 0.1 mg): 0.14 % b-actin molecules
SOCS-1 transcript level in CNS target tissue normalized to b-actin ([12]; fed 1 mg): 0.19 % b-actin molecules
SOCS-1 transcript level in CNS target tissue normalized to b-actin ([12]; fed 10 mg): 0.22 % b-actin molecules
SOCS-1 transcript level in CNS target tissue normalized to b-actin ([12]; fed 100 mg): 0.14 % b-actin molecules
difference in SOCS-2 compared to control ([13]; cord samples): no significant differences
difference in SOCS-2 compared to control [13, 16]: no significant difference
